Experimental data: paper PMC7827014, “Synthetic Transition from Thiourea-Based Compounds to Tetrazole Derivatives: Structure and Biological Evaluation of Synthesized New N-(Furan-2-ylmethyl)-1H-tetrazol-5-amine Derivatives” (Molecules, 2021)
Converted amounts (≈) assume the structure as drawn. Read-outs that look alike come from different tables or passages of the source.

Tests used:
[1] = tested on: M. tuberculosis H37Rv; experiment: In vitro antitubercular MIC; type: cell-based; conditions: Mycobacterium tuberculosis, read-out: Minimal inhibitory concentration
[2] = tested on: HaCaT; experiment: MTT assay 72 h; type: cell-based, human
Protocol: (§1) The cell viability was assessed by using an enzymatic conversion of 3-(4,5-dimethylthiazol-2-yl)-2,5-diphenyltetrazolium bromide salt (MTT) to insoluble formazan crystals by mitochondrial dehydrogenases, occurring in living cells. Cells were cultured in 96-well plates at a density of l × 10^4 cells per well, and cultured to adhere for 24 h at 37 °C in a CO2 incubator. After 24 h of incubation, culture medium was replaced with a fresh medium, then cells were treated with various concentrations of the compounds and incubated for 72 h at 37 °C in a CO2 incubator. Untreated cells were used as the control. Subsequently, MTT solution (0,5 mg/mL in free-serum medium) was added, and samples were incubated for 4 h at 37 °C in a CO2 incubator. Then, the medium was aspirated, and formed formazan crystals were solubilized by adding an isopropanol-DMSO mixture (1:1 vol). The intensity of the dissolved crystals was measured using a UVM 340 reader (ASYS Hitech GmbH, Austria), at a wavelength of 570 nm. Cell viability was presented as a percent of MTT reduced in treated cells versus control cells (incubated without tested compounds). The relative MTT level (%) was calculated as [A]/[B]×100, where [A] is the absorbance of the test sample, and [B] is the absorbance of the control sample containing the untreated cells. The IC50 value was estimated using CalcuSyn version 1.0. […]
(§2) Antiproliferative activity of tested compounds. Data are given as IC50 [µM] and SI.
(§3) Human immortal keratinocyte cell line from adult human skin (HaCaT), Human colorectal adenocarcinoma (CaCo-2), Human epithelial lung carcinoma cell line (A549) and Human melanoma cell line (HTB-140). Data are expressed as mean ± SD. The SI (Selectivity Index) was calculated for each compound using formula: SI = IC50 for normal cel line / IC50 cancer cel line.

[3] = tested on: HTB-140; experiment: MTT assay 72 h; type: cell-based, human; conditions: HTB-140, MTT 72 h, mean ± SD
Protocol: as §1, §2, §3

[4] = tested on: A549; experiment: MTT assay 72 h; type: cell-based, human
Protocol: as §1, §2, §3

[5] = tested on: M. tuberculosis INH susceptible (Spec. 192); experiment: In vitro antitubercular MIC; type: cell-based; conditions: Mycobacterium tuberculosis, read-out: Minimal inhibitory concentration
[6] = tested on: Caco-2; experiment: MTT assay 72 h; type: cell-based; conditions: Homo sapiens
Protocol: as §1, §2, §3

[7] = tested on: P. aeruginosa ATCC 15442; design: method as in PMID 30031974; conditions: previous project ref 20; cited from earlier work
[8] = tested on: P. aeruginosa ATCC 27853; design: method as in PMID 30031974; conditions: previous project ref 20; cited from earlier work
[9] = tested on: S. epidermidis ATCC 12228; design: method as in PMID 30031974; conditions: previous project ref 20; cited from earlier work
[10] = tested on: S. aureus NCTC 4163; design: method as in PMID 30031974; conditions: previous project ref 20; cited from earlier work
[11] = tested on: E. hirae ATCC 10541; design: method as in PMID 30031974; conditions: previous project ref 20; cited from earlier work
[12] = tested on: standard bacterial strains; design: method as in PMID 30031974; conditions: various standard bacterial strains; cited from earlier work
[13] = tested on: hospital staphylococcal isolates; design: method as in PMID 30031974; conditions: clinical cocci; cited from earlier work
[14] = Homo sapiens, HaCaT normal cells, MTT 72 h, mean ± SD, read-out: IC50
[15] = Homo sapiens, A549, MTT 72 h, mean ± SD, read-out: IC50
[16] = Caco-2, MTT 72 h, mean ± SD, read-out: IC50

| SMILES | MIC [1] | IC50 [2, 14] | IC50 ([3]; Homo sapiens) | IC50 [4, 15] | MIC [5] | IC50 [6, 16] | also measured |
| --- | --- | --- | --- | --- | --- | --- | --- |
| Fc1cccc(-n2nnnc2NCc2ccco2)c1 [Compound 9, 1-(3-fluorophenyl)-N-(furan-2-ylmethyl)-1H-tetrazol-5-amine] | 256 µg/mL (≈ 987 µM) | > 100 µM | > 100 µM | > 100 µM | 256 µg/mL (≈ 987 µM) | > 100 µM |  |
| Brc1ccc(-n2nnnc2NCc2ccco2)cc1 [Compound 10, 1-(4-bromophenyl)-N-(furan-2-ylmethyl)-1H-tetrazol-5-amine] | > 512 µg/mL | > 100 µM | > 100 µM | > 100 µM | > 512 µg/mL | > 100 µM |  |
| Clc1ccccc1-n1nnnc1NCc1ccco1 [Compound 11, 1-(2-chlorophenyl)-N-(furan-2-ylmethyl)-1H-tetrazol-5-amine] | 512 µg/mL (≈ 1860 µM) | > 100 µM | > 100 µM | > 100 µM | 256 µg/mL (≈ 929 µM) | > 100 µM |  |
| Brc1ccccc1-n1nnnc1NCc1ccco1 [Compound 12, 1-(2-bromophenyl)-N-(furan-2-ylmethyl)-1H-tetrazol-5-amine] | 512 µg/mL (≈ 1600 µM) | > 100 µM | > 100 µM | > 100 µM | 512 µg/mL (≈ 1600 µM) | > 100 µM |  |
| NNC(=O)c1ccncc1 [INH, isoniazid, reference compound] | ≤ 0.0625 µg/mL |  |  |  | ≤ 0.0625 µg/mL |  |  |
| Cc1ccc(-n2nnnc2NCc2ccco2)cc1Cl [Ref 1, 1-(3-chloro-4-methylphenyl)-N-(furan-2-ylmethyl)-1H-tetrazol-5-amine] |  |  |  |  |  |  | MIC [7]: 32 µg/mL (≈ 110 µM); MIC [8]: 4 µg/mL (≈ 13.8 µM); MIC [9]: 2 µg/mL (≈ 6.9 µM); MIC [10]: 4 µg/mL (≈ 13.8 µM); MIC [11]: 8 µg/mL (≈ 27.6 µM) |
| Fc1ccc(-n2nnnc2NCc2ccco2)cc1Cl [Ref 2, 1-(3-chloro-4-fluorophenyl)-N-(furan-2-ylmethyl)-1H-tetrazol-5-amine] |  |  |  |  |  |  | MIC [7]: 64 µg/mL (≈ 218 µM); MIC (range) [12]: 0.25 to 4 µg/mL; MIC [8]: 2 µg/mL (≈ 6.81 µM); MIC [9]: 2 µg/mL (≈ 6.81 µM); MICs (range) [13]: 2 to 16 µg/mL; MIC [10]: 2 µg/mL (≈ 6.81 µM); MIC [11]: 4 µg/mL (≈ 13.6 µM) |
| N.N.[Cl][Pt][Cl] [cisplatin, reference compound] |  |  |  |  |  |  | IC50 ([2]; HaCaT normal cells, MTT 72 h, mean ± SD, read-out: IC50): 2.84 µM; IC50 [3]: 1.13 µM; IC50 ([4]; A549, MTT 72 h, mean ± SD, read-out: IC50): 1.95 µM |
| COc1cccc2c1C(=O)c1c(O)c3c(c(O)c1C2=O)C[C@@](O)(C(=O)CO)C[C@@H]3O[C@H]1C[C@H](N)[C@H](O)[C@H](C)O1 [doxorubicin, reference compound] |  |  |  |  |  |  | IC50 ([2]; Homo sapiens, HaCaT, 72 h): 1.09 µM; IC50 ([4]; Homo sapiens, A549, 72 h): 0.63 µM; IC50 ([6]; Caco-2, 72 h): 0.53 µM |
